{"source": "paper PMC9440176", "about": "“Novel benzylidene benzofuranone analogues as potential anticancer agents: design, synthesis and in vitro evaluation based on CDK2 inhibition assays” (3 Biotech, 2022)"}
{"system": "not listed separately", "test": "ABTS.+ radical scavenging assay", "conditions": "not given", "procedure": "The assay was performed in a 96-well plate by serial dilution method. A 2 mM ABTS^.+ working solution was prepared in a phosphate buffer (Zheleva-Dimitrova et al [2010]).To this, 200 μL of aqueous potassium per sulfate (70 mM) solution was added and the solution was incubated for 24 h in the dark at room temperature to develop a blue-green color. To 30 μL of ABTS^.+ working solution, 50 μL of different concentrations (3.9–1000 μM) of the test sample solution and 170 μL of phosphate buffer (pH-7.4) were added in a well. The plate was then incubated in the dark at room temperature for 10 min. Then absorbance was measured at 690 nm using Elisa reader. Quercetin and ascorbic acid were used as standards. The percentage scavenging of ABTS^.+ was calculated using the formula, (Control Absorbance–Test Absorbance)*100/(Control Absorbance) and the anti-oxidant activity was expressed in terms of IC50 value.", "units": {"IC50": "µM"}}
{"compound": "COc1cc(OC)c(C2=CCN(C(C)C)CC2)c2c1C(=O)/C(=C/c1ccc(Cl)cc1)O2", "note": "[NISOA6]", "IC50": "146 ± 14.8"}
{"compound": "COc1cc(OC)c(C2=CCN(C)CC2)c2c1C(=O)/C(=C/c1ccccc1)O2", "note": "[NMA1]", "IC50": "131 ± 1.74"}
{"compound": "COc1cc(OC)c(C2=CCN(C)CC2)c2c1C(=O)/C(=C/c1ccccc1C)O2", "note": "[NMA3]", "IC50": "89.8 ± 1.48"}
{"compound": "COc1cc(OC)c(C2=CCN(C)CC2)c2c1C(=O)/C(=C/c1ccc(N(C)C)cc1)O2", "note": "[NMA4]", "IC50": "137 ± 6.23"}
{"compound": "COc1ccc(/C=C2\\Oc3c(c(OC)cc(OC)c3C3=CCN(C)CC3)C2=O)cc1", "note": "[NMA5]", "IC50": "87 ± 0.18"}
{"compound": "COc1ccc(/C=C2\\Oc3c(c(OC)cc(OC)c3C3=CCN(C)CC3)C2=O)cc1OC", "note": "[NMA6]", "IC50": "200 ± 4.43"}
{"biological_target": "CDK2/Cyclin A (Homo sapiens, UniProt P24941)", "test": "CDK2/cyclin A inhibitory assay, Z'-LYTE FRET kinase assay", "format": "biochemical", "conditions": "concentration of 100 micro molar; 1000 ng/ml kinase, 1000 µM ATP", "from_the_text": "Z’-LYTE® technology involves homogeneous assay design based on FRET and is a universal platform for both screening as well as profiling protein kinases. The assay uses a peptide substrate labeled with two different fluorophores, coumarin donor and fluorescein acceptor on each end. These two fluorophores make up a FRET pair, which allows the transfer of energy when both are present on the same molecule. The initial kinase reaction transfers the ϒ-phosphate of ATP to a tyrosine or serine/threonine residue on the substrate. In a secondary reaction, referred to as the development reaction, a site-specific protease recognizes and cleaves only non-phosphorylated peptide, while phosphorylated substrate remains uncleaved. […] Upon excitation of Coumarin at 400 nm, the FRET signal is measured as a ratio between the Coumarin donor emission at 445–460 nm and the fluorescein acceptor emission at 520–535 nm(Lebakken et al. [2007]).\nInitial ten-fold and two-fold dilutions of Kinase and ATP concentrations were used to choose the optimal Kinase and ATP concentration based on the % Phosphorylation.\nThe assay was carried out according to the kit instructions (384 well format). Briefly, 5X kinase buffer [250 mM HEPES (pH 7.5), 50 mM MgCl2, 5 mM EGTA, 0.05% BRIJ-35] was diluted to 1X using distilled water. The phosphor peptide positive control (Z’-LYTE® Tyr 4 phospho-peptide) and the non-phosphorylated negative control (Z’-LYTE® Tyr 4 peptide) were then diluted to 1:500 with 1× kinase buffer to 2 μM. […] Working development solution was then made by diluting 12 μL of the provided stock solution with 388 μL of the provided development buffer. Aliquots (20 μL) of each peptide mixture were then added to the wells of a Corning 3914 solid white microplate in replicates of 8. The development reaction was initiated by the addition of 10 μL of working development-solution to all the wells. Further, the plates were allowed to incubate at room temperature for 60 min. Reactions were then stopped by the addition of 10 μL of stop solution (Jia et al. [2008]).\nReactions were quantitated using a Tecan Robotic Microplate Reader. Reader control, blank subtraction, ratio metric calculations and finally graph plotting were carried out using Gen5™ Data Analysis Software.\nThe CDK2/Cyclin A assay was carried out as per the manufacturer’s instruction using suitable controls and standard.\nThe inhibitory assay was carried out using the stock of 10 mM in DMSO. Samples were further serially diluted to obtain concentrations of 100 μM. The concentrations were chosen based on the IC50 values obtained in the MTT assay. A total of 23 analogues were selected for the assay based on their antiproliferative activity. Further, selected compounds were screened and tested against the target CDK2/Cyclin A, and their % phosphorylation and % inhibition were recorded.", "units": {"% inhibition on CDK2/cyclin A": "%"}}
{"compound": "COc1cc(OC)c(C2=CCN(C(C)C)CC2)c2c1C(=O)/C(=C/c1ccc(Cl)cc1)O2", "note": "[NISOA6]", "% inhibition on CDK2/cyclin A": 36.546}
{"compound": "COc1cc(OC)c(C2=CCN(C)CC2)c2c1C(=O)/C(=C/c1ccccc1)O2", "note": "[NMA1]", "% inhibition on CDK2/cyclin A": 27.654}
{"compound": "COc1cc(OC)c(C2=CCN(C)CC2)c2c1C(=O)/C(=C/c1ccccc1C)O2", "note": "[NMA3]", "% inhibition on CDK2/cyclin A": 24.987}
{"compound": "COc1cc(OC)c(C2=CCN(C)CC2)c2c1C(=O)/C(=C/c1ccc(N(C)C)cc1)O2", "note": "[NMA4]", "% inhibition on CDK2/cyclin A": 29.543}
{"compound": "COc1ccc(/C=C2\\Oc3c(c(OC)cc(OC)c3C3=CCN(C)CC3)C2=O)cc1", "note": "[NMA5]", "% inhibition on CDK2/cyclin A": 25.098}
{"compound": "COc1ccc(/C=C2\\Oc3c(c(OC)cc(OC)c3C3=CCN(C)CC3)C2=O)cc1OC", "note": "[NMA6]", "% inhibition on CDK2/cyclin A": 26.113}
{"system": "normal epithelial kidney cells (Vero)", "test": "MTT cytotoxicity assay on Vero", "format": "cell-based", "conditions": "24 h, read-out: Inhibition of cell proliferation, IC50, Vero", "procedure": "(§1) The monolayer cell culture was trypsinized and the cell count was adjusted to 5.0 × 10^5 cells/ml using respective media containing 10% FBS. To each well of the 96-well microtiter plate, 100 µL of the diluted cell suspension (50,000cells/well) was added. After 24 h, when a partial monolayer was formed, the supernatant was flicked off, the monolayer was then washed once again with the medium and 100 µL of different test concentrations of test drugs were added on to the partial monolayer in microtiter plates. The plates were then incubated at 37 °C for 24 h in 5% CO2 atmosphere. After incubation, the test solutions in the wells were discarded and 100 µL of MTT (5 mg/10 ml of MTT in PBS) was added to each well. The plates were then incubated for 4 h at 37 °C in 5% CO2 atmosphere. The supernatant was then removed and 100 µL of DMSO was added and the plates were gently shaken to solubilize the formed formazan. The absorbance was measured using a microtiter plate reader at a wavelength of 590 nm. The percentage growth inhibition was thus calculated using the following formula and the concentration of the test drug required to inhibit the cell growth by 50% (IC50) values is generated from the dose–response curves for each one of the cell lines (Meerloo et al. [2011]).\n(§2) The test compounds were screened for their in vitro cytotoxicity by MTT assay against two cancer cell lines, namely MCF-7, HCT-116 and normal epithelial kidney cells (Vero). Doxorubicin was used as a reference standard.", "units": {"IC50": "µM"}}
{"compound": "COc1cc(OC)c(C2=CCN(C(C)C)CC2)c2c1C(=O)/C(=C/c1ccc(Cl)cc1)O2", "note": "[NISOA6]", "IC50": 179}
{"compound": "COc1cc(OC)c(C2=CCN(C)CC2)c2c1C(=O)/C(=C/c1ccccc1)O2", "note": "[NMA1]", "IC50": 187}
{"compound": "COc1cc(OC)c(C2=CCN(C)CC2)c2c1C(=O)/C(=C/c1ccccc1C)O2", "note": "[NMA3]", "IC50": 188}
{"compound": "COc1cc(OC)c(C2=CCN(C)CC2)c2c1C(=O)/C(=C/c1ccc(N(C)C)cc1)O2", "note": "[NMA4]", "IC50": "> 200"}
{"compound": "COc1ccc(/C=C2\\Oc3c(c(OC)cc(OC)c3C3=CCN(C)CC3)C2=O)cc1", "note": "[NMA5]", "IC50": "> 200"}
{"compound": "COc1ccc(/C=C2\\Oc3c(c(OC)cc(OC)c3C3=CCN(C)CC3)C2=O)cc1OC", "note": "[NMA6]", "IC50": "> 200"}
{"system": "MCF-7", "test": "MTT cytotoxicity assay on MCF-7", "format": "cell-based", "conditions": "24 h, read-out: Inhibition of cell proliferation, IC50, MCF-7", "procedure": "as §1, §2", "units": {"IC50": "µM"}}
{"compound": "COc1cc(OC)c(C2=CCN(C(C)C)CC2)c2c1C(=O)/C(=C/c1ccc(Cl)cc1)O2", "note": "[NISOA6]", "IC50": 43.9}
{"compound": "COc1cc(OC)c(C2=CCN(C)CC2)c2c1C(=O)/C(=C/c1ccccc1)O2", "note": "[NMA1]", "IC50": 67.8}
{"compound": "COc1cc(OC)c(C2=CCN(C)CC2)c2c1C(=O)/C(=C/c1ccccc1C)O2", "note": "[NMA3]", "IC50": 62.7}
{"compound": "COc1cc(OC)c(C2=CCN(C)CC2)c2c1C(=O)/C(=C/c1ccc(N(C)C)cc1)O2", "note": "[NMA4]", "IC50": 63.8}
{"compound": "COc1ccc(/C=C2\\Oc3c(c(OC)cc(OC)c3C3=CCN(C)CC3)C2=O)cc1", "note": "[NMA5]", "IC50": 155}
{"compound": "COc1ccc(/C=C2\\Oc3c(c(OC)cc(OC)c3C3=CCN(C)CC3)C2=O)cc1OC", "note": "[NMA6]", "IC50": 98.5}
{"system": "HCT 116", "test": "MTT cytotoxicity assay on HCT 116", "format": "cell-based, Human", "conditions": "24 h, read-out: Inhibition of cell proliferation, IC50, HCT 116", "procedure": "as §1, §2", "units": {"IC50": "µM"}}
{"compound": "COc1cc(OC)c(C2=CCN(C(C)C)CC2)c2c1C(=O)/C(=C/c1ccc(Cl)cc1)O2", "note": "[NISOA6]", "IC50": 41.8}
{"compound": "COc1cc(OC)c(C2=CCN(C)CC2)c2c1C(=O)/C(=C/c1ccccc1)O2", "note": "[NMA1]", "IC50": 86.9}
{"compound": "COc1cc(OC)c(C2=CCN(C)CC2)c2c1C(=O)/C(=C/c1ccccc1C)O2", "note": "[NMA3]", "IC50": 89}
{"compound": "COc1cc(OC)c(C2=CCN(C)CC2)c2c1C(=O)/C(=C/c1ccc(N(C)C)cc1)O2", "note": "[NMA4]", "IC50": 89.5}
{"compound": "COc1ccc(/C=C2\\Oc3c(c(OC)cc(OC)c3C3=CCN(C)CC3)C2=O)cc1", "note": "[NMA5]", "IC50": 139}
{"compound": "COc1ccc(/C=C2\\Oc3c(c(OC)cc(OC)c3C3=CCN(C)CC3)C2=O)cc1OC", "note": "[NMA6]", "IC50": 123}
{"system": "not listed separately", "test": "DPPH. free radical scavenging assay", "conditions": "not given", "procedure": "DPPH. assay was performed using 96-well plate by serial dilution method. The dilution of methanolic stock solution of the test compounds and standard anti-oxidants was carried out to obtain concentration in the range of 3.9–1000 µM. Quercetin and ascorbic acid were used as standards. To a 100 μL of this solution, 100 μL of 200 µM DPPH^. in methanolic solution was added. The experiment was done in triplicate and the plate was then incubated for 30 min in the dark and later the absorbance was measured at 517 nm using Elisa reader. The percentage DPPH^. Scavenging was calculated using the formula, (Control Absorbance–Test Absorbance)*100/(Control Absorbance). The anti-oxidant activity of the test compounds was expressed in terms of concentration required for 50 percentage inhibition (IC50) (Collins [2005]).", "units": {"IC50": "µM"}}
{"compound": "COc1cc(OC)c(C2=CCN(C(C)C)CC2)c2c1C(=O)/C(=C/c1ccc(Cl)cc1)O2", "note": "[NISOA6]", "IC50": "183 ± 11.9"}
{"compound": "COc1cc(OC)c(C2=CCN(C)CC2)c2c1C(=O)/C(=C/c1ccccc1)O2", "note": "[NMA1]", "IC50": "151 ± 3.54"}
{"compound": "COc1cc(OC)c(C2=CCN(C)CC2)c2c1C(=O)/C(=C/c1ccccc1C)O2", "note": "[NMA3]", "IC50": "103 ± 7.78"}
{"compound": "COc1cc(OC)c(C2=CCN(C)CC2)c2c1C(=O)/C(=C/c1ccc(N(C)C)cc1)O2", "note": "[NMA4]", "IC50": "154 ± 12.7"}
{"compound": "COc1ccc(/C=C2\\Oc3c(c(OC)cc(OC)c3C3=CCN(C)CC3)C2=O)cc1", "note": "[NMA5]", "IC50": "98.2 ± 1.99"}
{"compound": "COc1ccc(/C=C2\\Oc3c(c(OC)cc(OC)c3C3=CCN(C)CC3)C2=O)cc1OC", "note": "[NMA6]", "IC50": "258 ± 8.83"}
